In PubChem BioAssay AID489032 (Sanford-Burnham Center for Chemical Genomics, 2010) one finds EC50 data, which are given here for 79 molecules.

Active and inactive are the calls of the source. The rule behind the calls is not given here.

For this test, the system named is UPR adaptive arm reporter cells, luciferase luminescence. Briefly: adaptive unfolded protein response reporter activation – cell-based, luciferase luminescence, dose response (AID 489032).

As to `NC(=O)CC(NC(=O)Cc1cccc2ccccc12)c1ccc(NCCOc2ccccc2)c([N+](=O)[O-])c1` (centres undefined), the EC50 was > 80 µM (inactive).

On to `CCOc1ccc(NC(=O)C(Cc2ccccc2)N2C(=O)c3cccc4cccc(c34)C2=O)cc1` (centres undefined), for which the EC50 is > 80 µM (inactive).

In the case of `COc1ccc(N2CCN(Cc3cc(=O)oc4cc(-c5ccccc5)c(O)cc34)CC2)cc1`, the EC50 was > 80 µM (inactive).

`Nc1nc(SCc2ccc(Cl)cc2Cl)nc2nc3c(cc12)CCCC3`: the EC50 is > 80 µM (inactive).

As for `CCOC(=S)SCC(=O)Nc1nc(-c2ccc(Br)cc2)cs1`, the EC50 was > 80 µM (inactive).

`COc1cc(NC(=O)c2ccco2)c(C(=O)OCC(=O)c2c[nH]c3ccccc23)cc1OC`: the EC50 is > 80 µM (inactive).

As to `CCCCCCCC(=O)Nc1ccc(C(=O)N/N=C/c2cccc([N+](=O)[O-])c2)cc1`, the EC50 is 18.3 µM.

As for `O=c1cc(CN2CCN(c3ccccc3)CC2)c2cc(O)c(-c3ccccc3)cc2o1`, the EC50 was 27.4 µM (inactive).

Regarding `CSc1ccccc1NC(=O)c1cc(-c2cccnc2)nc2ccc(Br)cc12`, the EC50 was > 80 µM (inactive).

`COc1ccc(N2CCN(Cc3nc(N)nc(Nc4ccc(C)c(Cl)c4)n3)CC2)cc1`: the EC50 was 18.4 µM.

`CC1CCN(Cc2c(C(=O)N/N=C/c3ccc(C(F)(F)F)cc3)nnn2-c2nonc2N)CC1`: the EC50 was > 80 µM (inactive).

As for `Cc1ccccc1NC(=O)c1ccc(N/N=C/c2ccccc2O)c([N+](=O)[O-])c1`, the EC50 is > 80 µM (inactive).

Turning to `Cc1cc(NC(=O)c2cc(-c3ccncc3)nc3c(C)cccc23)no1`, the EC50 was 17.7 µM.

On to `O=C(Nc1ccc([N+](=O)[O-])cc1)C(Cc1ccccc1)N1C(=O)c2cccc3cccc(c23)C1=O` (centres undefined), for which the EC50 was 27 µM (inactive).

On to `Cc1ccc2c(c1)C(c1ccc(N3CCOCC3)cc1)=NNC(c1cccs1)=N2`, for which the EC50 was 46.9 µM (inactive).

For the molecule `COc1cc([C@@H]2c3cc4c(cc3[C@@H](O)[C@H]3COC(=O)[C@H]23)OCO4)cc(OC)c1O[Si](C)(C)C(C)(C)C`, the EC50 was > 80 µM (inactive).

As to `CCOC(=O)C1=C(C)n2c(s/c(=C/c3cccc([N+](=O)[O-])c3)c2=O)=NC1c1ccc(O)c(OC)c1` (centres undefined), the EC50 was > 80 µM (inactive).

For `Cc1ccc(/C=C/C(=O)c2cc(Br)ccc2OC(=O)c2ccco2)cc1`, the EC50 is 37.9 µM (inactive).

As to `COc1ccc2nc(C)cc(SCC(=O)N/N=C/c3cccc4ccccc34)c2c1`, the 50% effective concentration (EC50) is 17.8 µM.

Turning to `CCCCCCCCCCOC(=O)Cn1c(COc2ccccc2OC)[n+](C)c2ccccc21`, the EC50 is 18.1 µM.

As for `Cc1ccc(Nc2nc(-c3c(C)nc4ccccn34)cs2)cc1`, the EC50 is > 80 µM (inactive).

Consider `CCN(CC)S(=O)(=O)c1ccc2c(c1)C(=NO)c1cc(S(=O)(=O)N(CC)CC)ccc1-2`, for which the EC50 is 18.6 µM.

As to `COc1cc(OC)cc(C(=O)Nc2ccc3nc4n(c(=O)c3c2)CCCCC4)c1`, the EC50 was 31.9 µM (inactive).

`O=C(C[n+]1ccc(-c2cc(C(=O)Nc3cccc(C(F)(F)F)c3)c3ccccc3n2)cc1)c1cccc([N+](=O)[O-])c1`: the EC50 is > 80 µM (inactive).

For `O=C(N/N=C/c1ccccc1Cl)c1[nH]c2ccc(Br)cc2c1-c1ccccc1`, the EC50 was 32.9 µM (inactive).

As to `C#CCn1c(=NC(=O)c2ccc(S(=O)(=O)N3CCc4ccccc4C3)cc2)sc2cc(S(N)(=O)=O)ccc21`, the EC50 is > 80 µM (inactive).

Consider `Cc1ccc(C(=O)N2N=C(c3ccc(Br)cc3)CC2c2ccccc2O)cc1` (centres undefined), for which the EC50 is > 80 µM (inactive).

For the molecule `COc1ccc(NC(=O)c2cc3c(=O)n(C)c4ccccc4c3n2C)cc1Cl`, the EC50 is > 80 µM (inactive).

For `N#Cc1ccccc1NC(=O)COc1c(Br)cc(Br)c2cccnc12`, the EC50 was > 80 µM (inactive).

On to `N#Cc1ccc(-c2ccc(Cl)cc2)nc1SCC(=O)c1cccc(Cl)c1`, for which the concentration giving a half-maximal response (EC50) is 11 µM.

For the molecule `O=C(CSCc1ccc(Cl)cc1)Nc1ccc(-c2nnc(-c3ccccc3)o2)cc1`, the EC50 was > 80 µM (inactive).

In the case of `CCN(CC)c1ccc(-c2nn3c(-c4ccccc4OC)nnc3s2)cc1`, the EC50 was > 80 µM (inactive).

As for `COC(=O)c1c(NC(=O)CC2Nc3ccccc3NC2=O)sc(C)c1C` (centres undefined), the EC50 was > 80 µM (inactive).

For `CCC/C(=N/Nc1ccc(Cl)cc1)c1cnnc(-c2ccccc2)n1`, the EC50 is > 80 µM (inactive).

For `CCCCNc1c(-c2ccc(SC(C)CC)cc2)nc2cnccn12` (centres undefined), the EC50 is > 80 µM (inactive).

Regarding `CC1=Nc2ccccc2/C1=C\c1sc(Nc2ccc(C)cc2)nc1O`, the EC50 is > 80 µM (inactive).

Turning to `Cc1ccc(Cc2cnc(NC(=O)/C(C#N)=C/c3ccc(-c4cccc([N+](=O)[O-])c4)o3)s2)cc1`, the EC50 was 18.1 µM.

Regarding `OCCNc1nc(Nc2ccc(Br)cc2)nc2ccccc12`, the EC50 is > 80 µM (inactive).

As to `Cc1ccc(NC(=O)Cn2c(/C=C/c3ccccc3)nc3ccccc32)cc1C`, the EC50 was > 80 µM (inactive).

For `Brc1ccc(C2=Nn3c(nnc3-c3n[nH]c4c3CCC4)SC2)cc1`, the EC50 was 28.3 µM (inactive).

For the molecule `COc1ccc(-c2c/c(=N\c3nc(-c4ccccc4)c(C)s3)c3ccccc3o2)cc1O`, the EC50 is > 80 µM (inactive).

As for `CCCCCn1c(N)c(-c2nc3ccccc3o2)c2c([N+](=O)[O-])nn(CC)c(=O)c21`, the EC50 is > 80 µM (inactive).

For the molecule `CCc1ccc(NC(=O)C(CC)Sc2nc3cc4c(cc3c(=O)n2Cc2ccco2)OCO4)cc1` (centres undefined), the EC50 is > 80 µM (inactive).

Regarding `Cc1cccc(Nc2nc3c(S(=O)(=O)c4ccccc4)nnn3c3ccccc23)c1C`, the EC50 was 50.2 µM (inactive).

Consider `O=[N+]([O-])c1cc(-c2ccc(/C=N/c3nc4ccccn4c3-c3ccco3)o2)ccc1Cl`, for which the EC50 was > 80 µM (inactive).

Consider `COc1cc2[nH]c3c(N4CCN(c5ccc(Cl)cc5)CC4)ncnc3c2cc1OC`, for which the EC50 is > 80 µM (inactive).

Regarding `O=C(NCc1ccccc1Cl)c1cccc2c1C(=O)c1ccc(-c3ccc(OC(F)(F)F)cc3)cc1S2(=O)=O`, the EC50 is > 80 µM (inactive).

As to `O=C(/C=C/c1cc([N+](=O)[O-])ccc1OC(F)F)Nc1cccc([N+](=O)[O-])c1`, the EC50 is > 80 µM (inactive).

As to `OCCNc1nc(Nc2ccc(Cl)c(Cl)c2)nc2ccccc12`, the EC50 was > 80 µM (inactive).

Consider `O=C(Cc1ccccc1)c1c[nH]c(C(=O)C(Cl)(Cl)Cl)c1`, for which the EC50 was > 80 µM (inactive).

Turning to `COc1cccc(-c2c(-c3cc(OC)cc(OC)c3)n(C)c3ccc(-c4cnc(N5CCOCC5)nc4)cc23)c1`, the EC50 was 54.9 µM (inactive).

As to `Cc1nn(Cc2ccccc2)c(C)c1NC(=O)CSc1nc(C2CC2)nc2c1cnn2-c1ccccc1`, the EC50 is 47.2 µM (inactive).

For the molecule `CCOC(=O)Cc1csc(/N=C/c2c(O)n(-c3ccc(C)c(C)c3)c(=O)c3ccccc23)n1`, the EC50 was > 80 µM (inactive).

Take `Cc1ccc(-c2cc(C(F)F)n3ncc(C(=O)N4CCc5ccccc54)c3n2)cc1`: the EC50 was 27.2 µM (inactive).

`CC1CCc2c(sc(NC(=O)CCc3nc4ccccc4c(=O)[nH]3)c2C#N)C1` (centres undefined): the EC50 was 30.3 µM (inactive).

With `Cc1ccc(NC(=O)c2ccc(N/N=C/c3cccc(O)c3)c([N+](=O)[O-])c2)cc1`, the EC50 is > 80 µM (inactive).

On to `COc1cc(/C=N/Nc2nc(Nc3ccc(C)cc3)nc(-n3nc(C)cc3C)n2)cc(OC)c1OC`, for which the EC50 is 19.7 µM.

In the case of `COc1cc2c(cc1NC(=S)NC(=O)/C=C/c1ccco1)oc1ccccc12`, the EC50 is 21.3 µM (inactive).

Regarding `COC(=O)c1c(C)oc2ccc(N(C(=O)Oc3ccccc3)S(=O)(=O)c3ccc(Cl)c([N+](=O)[O-])c3)cc12`, the EC50 was 20.1 µM (inactive).

Turning to `COc1ccc(-c2nn(-c3ccccc3)cc2/C=N/N2C(=O)CSC2=S)cc1`, the EC50 is > 80 µM (inactive).

Turning to `CCOC(=O)c1cc(-c2ccccc2)sc1NC(=O)c1ccc(OC)cc1`, the EC50 was > 80 µM (inactive).

Regarding `Cc1ccc2c(c1)C(=O)C(=O)N2Cc1ccc(Br)cc1`, the EC50 was 59.8 µM (inactive).

As to `COc1ccc(-c2csc3nc(-c4ccc(C)cc4)oc(=O)c23)cc1OC`, the EC50 was > 80 µM (inactive).

Take `COc1ccc2nc(/C(C#N)=C\c3ccc(Oc4ccc([N+](=O)[O-])cn4)cc3)[nH]c2c1`: the EC50 was > 80 µM (inactive).

In the case of `Cc1ccc2nc(NC(=O)c3ccc(-c4nc5ccccc5s4)s3)sc2c1`, the EC50 was > 80 µM (inactive).

`O=C(Nc1nc2ccc(Cl)cc2s1)c1ccc(N2CCCCC2)c([N+](=O)[O-])c1`: the EC50 is > 80 µM (inactive).

In the case of `COc1cc(NC(=O)c2cccs2)ccc1NC(=O)c1cc2ccccc2o1`, the EC50 is > 80 µM (inactive).

Regarding `CC(C)(C)C(=O)NC(=S)NNC(=O)c1sc2ccccc2c1Cl`, the EC50 was > 80 µM (inactive).

Take `CCOC(=O)c1nn(-c2ccc(OCC)cc2)c2nc(-c3ccco3)c(C#N)c(=O)n12`: the EC50 was 58.9 µM (inactive).

Regarding `O=C(/C(=N/N=C/c1ccc(O)c(O)c1)c1ccccc1)c1ccccc1`, the EC50 is > 80 µM (inactive).

Regarding `COc1ccc(C2CC(c3c(-c4ccccc4)c4cc(Cl)ccc4[nH]c3=O)=NN2S(C)(=O)=O)cc1` (centres undefined), the EC50 was > 80 µM (inactive).

Turning to `COCc1cc(C)nc(OCC(=O)N/N=C/c2ccc(-c3cc([N+](=O)[O-])ccc3Cl)o2)c1C#N`, the concentration for a half-maximal effect (EC50) is 13.5 µM.

In the case of `COc1ccccc1C(=O)NC(=S)NNC(=O)c1sc2ccccc2c1Cl`, the EC50 was > 80 µM (inactive).

For the molecule `Cn1c(=O)c2c(SCC(=O)Nc3ccccc3F)nc(-c3ccccc3F)nc2n(C)c1=O`, the EC50 is 36.1 µM (inactive).

Take `CSC1=NC(C)(C)C=C(/C=C/c2ccc(Cl)cc2)N1`: the EC50 is > 80 µM (inactive).

For `N#Cc1c(-c2ccc3c(c2)OCO3)ccn2nc(-c3cccc(C(F)(F)F)c3)nc12`, the EC50 was > 80 µM (inactive).

Consider `O=C(Nc1ccc(O)c(-c2nc3ccccc3s2)c1)c1cc(=O)c2ccccc2o1`, for which the EC50 was > 80 µM (inactive).

On to `Oc1cc(-c2ccc(N3CCCCC3)nc2)cc2cccnc12`, for which the EC50 was > 80 µM (inactive).

With `Cc1ccc(-n2c(O)c(/C=N/c3ncc(Br)cc3Br)c(=O)[nH]c2=O)cc1`, the EC50 was 26.8 µM (inactive).
